The source made the active and inactive calls. No cut-off for these calls is given here.
Tests used:
Assay type in all cases: functional, cell-based
RAW264.7 [1] = assay: Antiinflammatory activity in mouse RAW264.7 cells assessed as inhibition of LPS-induced NO production at 0.1 uM incubated for 24 hrs
RAW264.7 [2] = assay: Antiinflammatory activity in mouse RAW264.7 cells assessed as inhibition of LPS-induced NO production at 0.05 uM incubated for 24 hrs
RAW264.7 [3] = assay: Antiinflammatory activity in mouse RAW264.7 cells assessed as inhibition of LPS-induced NO production at 1 uM incubated for 24 hrs
RAW264.7 [4] = assay: Cytotoxicity against mouse RAW264.7 cells assessed as reduction in cell viability at <50 uM incubated for 24 hrs by MTT assay
RAW264.7 [5] = assay: Antiinflammatory activity in mouse RAW264.7 cells assessed as inhibition of LPS-induced TNF-alpha expression at 0.1 uM measured after 24 hrs by ELISA method
RAW264.7 [6] = assay: Antiinflammatory activity in mouse RAW264.7 cells assessed as reduction in LPS-induced IL-6 level at 0.05 uM measured after 24 hrs by ELISA method
RAW264.7 [7] = assay: Antiinflammatory activity in mouse RAW264.7 cells assessed as inhibition of LPS-induced NO production at 2 uM incubated for 24 hrs
RAW264.7 [8] = assay: Cytotoxicity against mouse RAW264.7 cells assessed as reduction in cell viability at 2 to 10 uM incubated for 24 hrs by MTT assay; conditions: dose 2-10 µM
RAW264.7 [9] = assay: Antiinflammatory activity in mouse RAW264.7 cells assessed as inhibition of LPS-induced NO production at 0.2 uM incubated for 24 hrs
RAW264.7 [10] = assay: Antiinflammatory activity in mouse RAW264.7 cells assessed as inhibition of LPS-induced TNF-alpha expression at 0.2 uM measured after 24 hrs by ELISA method
RAW264.7 [11] = assay: Antiinflammatory activity in mouse RAW264.7 cells assessed as reduction in LPS-induced IL-6 level at 0.2 uM measured after 24 hrs by ELISA method
RAW264.7 [12] = assay: Cytotoxicity against mouse RAW264.7 cells assessed as reduction in cell viability at 10 uM incubated for 24 hrs by MTT assay

| Compound | Activity (RAW264.7 [1]) | Activity (RAW264.7 [2]) | Activity (RAW264.7 [3]) | Activity (RAW264.7 [4]) | other results |
| --- | --- | --- | --- | --- | --- |
| COc1ccc([C@]2(O)c3c(ccc4c3O[C@](C)(CCC=C(C)C)C=C4)N(Cc3cccc(C(F)(F)F)c3)C(=O)[C@H]2OC)cc1 (racemic) | Active | inactive | Active | inactive | – |
| CO[C@H]1C(=O)Nc2ccc3c(c2[C@]1(O)c1ccccc1)O[C@](C)(CCC=C(C)C)C=C3 | Active | inactive | Active | inactive | Activity (RAW264.7 [5]): inactive; Activity (RAW264.7 [6]): Active |
| CO[C@@H]1C(=O)Nc2ccc3c(c2[C@@]1(O)c1ccc([N+](=O)[O-])cc1)O[C@@](C)(CCC=C(C)C)C=C3 (racemic) | Active | inactive | Active | inactive | Activity (RAW264.7 [5]): inactive; Activity (RAW264.7 [6]): Active |
| COc1ccc2c(c1)c(CC(=O)O)c(C)n2C(=O)c1ccc(Cl)cc1 | – | – | – | inactive | Activity (RAW264.7 [7]): inactive |
| COc1ccc([C@]2(O)c3c(ccc4c3O[C@@](C)(CCC=C(C)C)C=C4)N(Cc3cccc(C)n3)C(=O)[C@H]2OC)cc1 (racemic) | Active | inactive | Active | inactive | – |
| COc1ccc([C@]2(O)c3c(ccc4c3O[C@@](C)(CCC=C(C)C)C=C4)N(Cc3cccc(Br)c3)C(=O)[C@H]2OC)cc1 (racemic) | Active | inactive | Active | inactive | – |
| CO[C@@H]1C(=O)Nc2ccc3c(c2[C@@]1(O)c1ccc(C(F)(F)F)cc1)O[C@@](C)(CCC=C(C)C)C=C3 (racemic) | Active | inactive | Active | – | Activity (RAW264.7 [5]): inactive; Activity (RAW264.7 [8]): Active |
| COc1ccc([C@]2(O)c3c(ccc4c3O[C@@](C)(CCC=C(C)C)C=C4)N(Cc3cccc(C(F)(F)F)c3)C(=O)[C@H]2OC)cc1 (racemic) | – | – | – | inactive | – |
| CO[C@@H]1C(=O)Nc2ccc3c(c2[C@@]1(O)c1ccc([N+](=O)[O-])cc1)O[C@](C)(CCC=C(C)C)C=C3 (racemic) | Active | inactive | Active | inactive | Activity (RAW264.7 [5]): inactive |
| CO[C@H]1C(=O)Nc2ccc3c(c2[C@]1(O)c1ccccc1)O[C@@](C)(CCC=C(C)C)C=C3 | – | – | – | inactive | – |
| COc1ccc([C@]2(O)c3c(ccc4c3O[C@](C)(CCC=C(C)C)C=C4)N(Cc3ccc(Cl)cc3)C(=O)[C@H]2OC)cc1 (racemic) | – | inactive | Active | inactive | – |
| COc1ccc([C@]2(O)c3c(ccc4c3O[C@@](C)(CCC=C(C)C)C=C4)N(Cc3ccccc3Cl)C(=O)[C@H]2OC)cc1 (racemic) | – | inactive | Active | inactive | – |
| COc1ccc([C@]2(O)c3c(ccc4c3O[C@@](C)(CCC=C(C)C)C=C4)N(Cc3cccc(F)c3)C(=O)[C@H]2OC)cc1 (racemic) | – | inactive | Active | inactive | – |
| CO[C@@H]1C(=O)Nc2ccc3c(c2[C@@]1(O)c1ccc(C(F)(F)F)cc1)O[C@](C)(CCC=C(C)C)C=C3 (racemic) | – | inactive | Active | inactive | – |
| CO[C@@H]1C(=O)Nc2ccccc2[C@@]1(O)c1ccccc1 (relative stereo) | – | – | – | – | Activity (RAW264.7 [9]): Active; Activity (RAW264.7 [10]): Active; Activity (RAW264.7 [11]): inactive; Activity (RAW264.7 [12]): Active |
| CO[C@@H]1C(=O)Nc2ccc3c(c2[C@@]1(O)c1ccc(C)cc1)O[C@](C)(CCC=C(C)C)C=C3 (racemic) | – | – | – | inactive | – |
| COc1ccc([C@@]2(O)c3c(ccc4c3O[C@@](C)(CCC=C(C)C)C=C4)NC(=O)[C@@H]2OC)cc1 | – | – | – | inactive | – |
| COc1ccc([C@]2(O)c3c(ccc4c3O[C@](C)(CCC=C(C)C)C=C4)N(Cc3cccc(Br)c3)C(=O)[C@H]2OC)cc1 (racemic) | Active | inactive | Active | – | Activity (RAW264.7 [8]): Active |
| CO[C@@H]1C(=O)Nc2ccc3c(c2[C@@]1(O)c1ccc(C)cc1)O[C@@](C)(CCC=C(C)C)C=C3 (racemic) | – | – | – | inactive | – |
| COc1ccc([C@]2(O)c3c(ccc4c3O[C@](C)(CCC=C(C)C)C=C4)NC(=O)[C@H]2OC)cc1 | – | inactive | Active | inactive | – |
| COc1cccc([C@]2(O)c3c(ccc4c3O[C@](C)(CCC=C(C)C)C=C4)NC(=O)[C@H]2OC)c1 (racemic) | – | inactive | Active | inactive | – |
| CO[C@@H]1C(=O)Nc2ccc3c(c2[C@@]1(O)c1ccc(Cl)cc1)O[C@](C)(CCC=C(C)C)C=C3 (racemic) | – | – | – | inactive | – |

| Compound | Activity (RAW264.7 [1]) | Activity (RAW264.7 [2]) | Activity (RAW264.7 [3]) | Activity (RAW264.7 [4]) | other results |
| --- | --- | --- | --- | --- | --- |
| CO[C@@H]1C(=O)Nc2ccc3c(c2[C@@]1(O)c1cccc(Br)c1)O[C@@](C)(CCC=C(C)C)C=C3 (racemic) | Active | inactive | Active | inactive | – |
| COc1cccc([C@]2(O)c3c(ccc4c3O[C@@](C)(CCC=C(C)C)C=C4)NC(=O)[C@H]2OC)c1 (racemic) | – | inactive | Active | inactive | – |
| CO[C@@H]1C(=O)Nc2ccc3c(c2[C@@]1(O)c1ccccc1)O[C@](C)(CCC=C(C)C)C=C3 | Active | inactive | Active | inactive | Activity (RAW264.7 [5]): inactive; Activity (RAW264.7 [6]): Active |
| COc1ccc([C@]2(O)c3c(ccc4c3O[C@](C)(CCC=C(C)C)C=C4)N(Cc3cccc(C)c3)C(=O)[C@H]2OC)cc1 (racemic) | – | – | – | inactive | – |
| COc1cccc2c1[C@@](O)(c1ccccc1)[C@H](OC)C(=O)N2 (relative stereo) | – | – | – | – | Activity (RAW264.7 [9]): Active; Activity (RAW264.7 [10]): Active; Activity (RAW264.7 [11]): Active; Activity (RAW264.7 [12]): Active |
| CO[C@@H]1C(=O)Nc2ccc3c(c2[C@@]1(O)c1ccc(Br)cc1)O[C@](C)(CCC=C(C)C)C=C3 (racemic) | – | inactive | Active | inactive | – |
| COc1ccc([C@@]2(O)c3c(ccc4c3O[C@](C)(CCC=C(C)C)C=C4)NC(=O)[C@@H]2OC)cc1 | – | – | – | inactive | – |
| CO[C@@H]1C(=O)Nc2ccc3c(c2[C@@]1(O)c1ccc(Cl)cc1)O[C@@](C)(CCC=C(C)C)C=C3 (racemic) | – | – | – | inactive | – |
| COc1ccc([C@]2(O)c3c(ccc4c3O[C@@](C)(CCC=C(C)C)C=C4)N(Cc3cccc(C)c3)C(=O)[C@H]2OC)cc1 (racemic) | – | – | – | inactive | – |
| COc1ccc([C@]2(O)c3c(ccc4c3O[C@@](C)(CCC=C(C)C)C=C4)N(Cc3ccc(Cl)cc3)C(=O)[C@H]2OC)cc1 (racemic) | Active | inactive | Active | inactive | – |
| COc1ccc([C@]2(O)c3c(ccc4c3O[C@](C)(CCC=C(C)C)C=C4)N(Cc3cccc(C)n3)C(=O)[C@H]2OC)cc1 (racemic) | – | – | – | inactive | – |
| COc1ccc([C@]2(O)c3c(ccc4c3O[C@@](C)(CCC=C(C)C)C=C4)N(C)C(=O)[C@H]2OC)cc1 (racemic) | – | inactive | Active | inactive | – |
| CO[C@@H]1C(=O)Nc2ccc3c(c2[C@@]1(O)c1cccc(Br)c1)O[C@](C)(CCC=C(C)C)C=C3 (racemic) | Active | inactive | Active | inactive | Activity (RAW264.7 [5]): inactive; Activity (RAW264.7 [6]): Active |
| CO[C@@H]1C(=O)Nc2ccc3c(c2[C@@]1(O)c1ccccc1)O[C@@](C)(CCC=C(C)C)C=C3 | – | – | – | inactive | – |
| COc1ccc([C@]2(O)c3c(ccc4c3O[C@](C)(CCC=C(C)C)C=C4)N(C)C(=O)[C@H]2OC)cc1 (racemic) | – | inactive | Active | inactive | – |
| CO[C@@H]1C(=O)Nc2ccc3c(c2[C@@]1(O)c1ccc(F)cc1)O[C@@](C)(CCC=C(C)C)C=C3 (racemic) | – | – | – | inactive | – |
| COc1ccc([C@]2(O)c3c(ccc4c3O[C@](C)(CCC=C(C)C)C=C4)N(Cc3cccc(F)c3)C(=O)[C@H]2OC)cc1 (racemic) | Active | inactive | Active | inactive | – |
| CO[C@@H]1C(=O)Nc2ccc3c(c2[C@@]1(O)c1ccc(Br)cc1)O[C@@](C)(CCC=C(C)C)C=C3 (racemic) | – | – | – | – | Activity (RAW264.7 [8]): Active |
| COc1ccc([C@]2(O)c3c(ccc4c3O[C@](C)(CCC=C(C)C)C=C4)N(Cc3ccccc3Cl)C(=O)[C@H]2OC)cc1 (racemic) | – | – | – | inactive | – |
| COc1ccc([C@]2(O)c3c(ccc4c3O[C@@](C)(CCC=C(C)C)C=C4)NC(=O)[C@H]2OC)cc1 | – | – | – | inactive | – |
| CO[C@@H]1C(=O)Nc2ccc3c(c2[C@@]1(O)c1ccc(F)cc1)O[C@](C)(CCC=C(C)C)C=C3 (racemic) | – | – | – | inactive | – |
